# Measured values reported in patent US9006450B2 (Boehringer Ingelheim International GmbH, priority 2010, dated 2015).
# Biological target: T1, human ACC2 (Homo sapiens, UniProt O00763)
# T1 construct: made in house; host or cells: insect cells (baculoviral expression system)
# Assay: ACC2 assay, spectrophotometric 384 well assay (NADH-linked, coupled lactate dehydrogenase/pyruvate kinase)
# Type: biochemical
# Conditions: ACC2 assay, hACC2 construct lacking 128 N-terminal amino acids, 25° C., 340 nm; read-out: IC50
# Procedure: Spectrophotometric 384 Well Assay
# Malonyl CoA formation by acetyl CoA carboxylases is stoichometrically linked to the consumption of ATP. ACC2 activity is measured in a NADH-linked kinetic method measuring ADP generated during the ACC reaction using a coupled lactate dehydrogenase/pyruvate kinase reaction.
# For biological testing, a human ACC2 construct which lacks the 128 amino acids at the N-terminus for increased solubility (nt 385-6966 in Genbank entry AJ575592) is cloned. The protein is then expressed in insect cells using a baculoviral expression system. Protein purification is performed by anion exchange.
# All compounds are dissolved in dimethyl sulfoxide (DMSO) to a concentration of 10 mM.
# Assay reactions are then carried out in 384-well plates, with hACC2 in an appropriate dilution and at final assay concentrations (f.c.) of 100 mM Tris (pH 7.5), 10 mM trisodium citrate, 25 mM KHCO3, 10 mM MgCl2, 0.5 mg/mL BSA, 3.75 mM reduced L-glutathione, 15 U/mL lactate dehydrogenase, 0.5 mM phosphoenolpyruvate, 15 U/mL pyruvate kinase, compounds at different concentrations at final DMSO concentrations of 1%.
# The enzymatic reaction is then started by addition of a mixture of NADH, acetyl Coenzyme A (both 200 μM f.c.) and ATP (500 uM f.c.). The decrease of the optical density (slope S) is then determined at 25° C. at a wavelength of 340 nm over 15 minutes in a spectrophotometric reader.
# Each assay microtiter plate contains wells with vehicle instead of compound as controls for the non-inhibited enzyme (100% CTL; ‘HIGH’) and wells without acetyl-CoA as controls for non-specific NADH degradation (0% CTL; ‘LOW’).
# The slope S is used for calculation of % CTL=(S(compound)−S('LOW'))/(S('HIGH')−S('LOW'))*100. Compounds will give values between 100% CTL (no inhibition) and 0% CTL (complete inhibition).
# For IC50 value determination, the sample slope in the presence of the test compound after subtraction of the low controls (S(compound)−S('LOW')) are used.
# An IC50 value is derived from the compound slopes at different dosages after subtraction of the low controls (S(compound)−S('LOW')) by non-linear regression curve fitting (equation y=(A+((B−A)/(1+((C/x)^D))))).
# T1 sequence (O00763 129-2458 limits assumed): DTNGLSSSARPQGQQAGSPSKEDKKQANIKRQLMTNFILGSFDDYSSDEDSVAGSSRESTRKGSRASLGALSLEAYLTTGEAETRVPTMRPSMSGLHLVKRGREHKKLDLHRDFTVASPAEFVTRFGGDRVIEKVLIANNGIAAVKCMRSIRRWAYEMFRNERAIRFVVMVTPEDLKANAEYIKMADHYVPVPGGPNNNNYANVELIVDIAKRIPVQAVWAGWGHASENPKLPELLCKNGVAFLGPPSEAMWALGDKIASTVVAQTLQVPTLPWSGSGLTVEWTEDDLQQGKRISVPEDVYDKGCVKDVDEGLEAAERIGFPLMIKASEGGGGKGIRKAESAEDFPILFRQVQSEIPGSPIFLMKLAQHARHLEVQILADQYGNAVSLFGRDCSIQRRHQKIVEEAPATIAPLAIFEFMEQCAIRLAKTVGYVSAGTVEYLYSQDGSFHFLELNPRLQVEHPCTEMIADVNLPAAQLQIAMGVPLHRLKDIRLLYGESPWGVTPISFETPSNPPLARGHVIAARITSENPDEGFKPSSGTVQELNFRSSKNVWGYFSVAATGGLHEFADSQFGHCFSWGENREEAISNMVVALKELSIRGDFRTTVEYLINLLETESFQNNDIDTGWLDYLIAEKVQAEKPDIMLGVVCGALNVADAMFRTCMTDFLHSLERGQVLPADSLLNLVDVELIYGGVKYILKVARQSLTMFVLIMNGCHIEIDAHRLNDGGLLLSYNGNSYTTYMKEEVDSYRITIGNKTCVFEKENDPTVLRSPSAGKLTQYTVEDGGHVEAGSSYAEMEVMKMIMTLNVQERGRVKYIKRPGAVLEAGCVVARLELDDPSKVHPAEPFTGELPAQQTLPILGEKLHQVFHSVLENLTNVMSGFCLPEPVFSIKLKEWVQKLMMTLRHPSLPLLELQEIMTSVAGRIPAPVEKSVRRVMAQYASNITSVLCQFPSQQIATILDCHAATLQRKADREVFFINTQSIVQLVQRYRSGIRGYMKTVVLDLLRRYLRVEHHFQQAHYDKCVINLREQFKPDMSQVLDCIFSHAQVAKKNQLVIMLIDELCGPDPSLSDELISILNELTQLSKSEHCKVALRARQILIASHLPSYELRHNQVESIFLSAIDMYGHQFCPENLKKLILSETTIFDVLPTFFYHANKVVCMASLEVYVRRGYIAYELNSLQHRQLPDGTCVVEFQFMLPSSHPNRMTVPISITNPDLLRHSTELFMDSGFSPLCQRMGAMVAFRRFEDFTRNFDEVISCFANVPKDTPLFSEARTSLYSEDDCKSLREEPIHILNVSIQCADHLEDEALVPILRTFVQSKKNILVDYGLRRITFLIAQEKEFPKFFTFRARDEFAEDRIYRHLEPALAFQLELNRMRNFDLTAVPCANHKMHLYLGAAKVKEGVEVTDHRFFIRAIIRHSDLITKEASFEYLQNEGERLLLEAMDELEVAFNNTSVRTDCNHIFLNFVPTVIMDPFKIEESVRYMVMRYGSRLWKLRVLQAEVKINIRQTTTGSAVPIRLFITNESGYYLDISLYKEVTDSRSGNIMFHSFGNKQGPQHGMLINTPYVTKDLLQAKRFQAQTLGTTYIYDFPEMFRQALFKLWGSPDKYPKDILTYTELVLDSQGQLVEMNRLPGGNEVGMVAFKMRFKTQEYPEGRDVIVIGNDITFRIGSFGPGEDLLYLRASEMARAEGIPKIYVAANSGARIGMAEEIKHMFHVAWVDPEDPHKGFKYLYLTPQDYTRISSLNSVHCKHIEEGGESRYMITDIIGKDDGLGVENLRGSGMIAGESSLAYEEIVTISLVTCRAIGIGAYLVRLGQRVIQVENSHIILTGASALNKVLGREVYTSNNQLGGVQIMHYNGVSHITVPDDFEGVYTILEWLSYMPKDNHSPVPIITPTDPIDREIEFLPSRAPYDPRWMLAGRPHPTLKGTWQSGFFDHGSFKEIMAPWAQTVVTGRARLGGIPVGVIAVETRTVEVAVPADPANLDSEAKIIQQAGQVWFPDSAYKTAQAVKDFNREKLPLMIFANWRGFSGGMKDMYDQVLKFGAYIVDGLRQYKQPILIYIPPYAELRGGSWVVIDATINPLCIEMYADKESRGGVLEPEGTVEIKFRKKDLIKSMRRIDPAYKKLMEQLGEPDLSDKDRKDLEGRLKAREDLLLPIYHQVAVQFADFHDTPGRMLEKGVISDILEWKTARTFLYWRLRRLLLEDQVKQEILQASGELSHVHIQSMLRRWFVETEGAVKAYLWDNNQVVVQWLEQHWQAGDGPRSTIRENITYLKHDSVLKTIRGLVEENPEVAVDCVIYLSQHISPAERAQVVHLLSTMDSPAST
row,IC50 [µM],SMILES
1,0.32,C[C@H](NC(=O)C1CC1)c1ccc(C2CCN(c3ccc(OCC4CCC4)cc3)CC2)cc1 [Example 1.141]
2,0.06,C[C@H](NC(=O)N(C)C)c1ccc(C2CCN(c3ccc(OCC4CCC4)cc3)CC2)cc1 [Example 1.142]
3,0.12,C[C@H](NC(=O)C1CC1)c1ccc(C2CCN(c3ccc(OCCC4CC4)cc3)CC2)cc1 [Example 1.143]
4,0.06,C[C@H](NC(=O)N(C)C)c1ccc(C2CCN(c3ccc(OCCC4CC4)cc3)CC2)cc1 [Example 1.144]
5,0.14,CCCOc1ccc(N2CCC(c3ccc([C@H](C)NC(=O)CC)cc3)CC2)cc1 [Example 1.145]
6,1.1,CCC(=O)N[C@@H](C)c1ccc(C2CCN(c3ccc4c(c3)OCCO4)CC2)cc1 [Example 1.146]
7,0.49,CCCOc1ccc(N2CCC(c3ccc([C@H](C)NC(=O)CC)cc3)CC2)c(OC)c1 [Example 1.147]
8,0.7,CCC(=O)N[C@@H](C)c1ccc(C2CCN(c3ccc(OCC4CC4)cc3F)CC2)cc1 [Example 1.148]
9,0.14,CCC(=O)N[C@@H](C)c1ccc(C2CCN(c3ccc(OCC(C)C)cc3)CC2)cc1 [Example 1.149]
10,0.11,CCC(=O)N[C@@H](C)c1ccc(C2CCN(c3ccc(OC4CC4)cc3)CC2)cc1 [Example 1.151]
11,0.08,CCC(=O)N[C@@H](C)c1ccc(C2CCN(c3ccc(OCC4CC4(F)F)cc3)CC2)cc1 (some centres unmarked) [Example 1.152]
12,0.52,CCC(=O)N[C@@H](C)c1ccc(C2CCN(c3ccnc(Oc4ccccc4)c3)CC2)cc1 [Example 1.153]
13,0.3,CCOc1ccc(N2CCC(c3ccc([C@H](C)NC(=O)CC)cc3)CC2)c(C#N)c1 [Example 1.154]
14,0.41,CC(=O)N[C@@H](C)c1ccc(C2CCN(c3ccc(F)c(C)c3)CC2)cc1 [Example 1.155]
15,0.6,CC(=O)N[C@@H](C)c1ccc(C2CCN(c3ccc(Cl)c(C)c3)CC2)cc1 [Example 1.156]
16,0.58,COc1ccc(N2CCC(c3ccc([C@H](C)NC(C)=O)cc3)CC2)cc1F [Example 1.157]

row,IC50 [µM],SMILES
1,2.7,CC(=O)N[C@@H](C)c1ccc(C2CCN(c3ccc(F)c(C#N)c3)CC2)cc1 [Example 1.159]
2,2.1,COc1ccc(N2CCC(c3ccc([C@H](C)NC(C)=O)cc3)CC2)cc1C [Example 1.160]
3,0.64,CC(=O)N[C@@H](C)c1ccc(C2CCN(c3ccc(Cl)c(F)c3)CC2)cc1 [Example 1.161]
4,3.1,COc1cc(N2CCC(c3ccc([C@H](C)NC(C)=O)cc3)CC2)ccc1Cl [Example 1.162]
5,0.67,CC(=O)N[C@@H](C)c1ccc(C2CCN(c3ccc(F)c(F)c3)CC2)cc1 [Example 1.163]
6,0.77,CC(=O)N[C@@H](C)c1ccc(C2CCN(c3ccc(OCC(F)F)cc3)CC2)cc1 [Example 1.164]
7,0.1,CC(=O)N[C@@H](C)c1ccc(C2CCN(c3ccc(OCCC(F)(F)F)cc3)CC2)cc1 [Example 1.165]
8,4,COc1ccc(N2CCC(c3ccc([C@H](C)NC(C)=O)cc3)CC2)cc1C1CC1 [Example 1.166]
9,0.91,CC(=O)N[C@@H](C)c1ccc(C2CCN(c3ccc(OCC4CCCO4)cc3)CC2)cc1 (some centres unmarked) [Example 1.167]
10,0.5,CCOc1ccc(N2CCC(c3ccc([C@H](C)NC(=O)CC)cc3)CC2)c(F)c1 [Example 1.168]
11,1.7,CCC(=O)N[C@@H](C)c1ccc(C2CCN(c3ccnc(Oc4cncnc4)c3)CC2)cc1 [Example 1.169]
12,0.4,CCOc1ccc(N2CCC(c3ccc([C@H](C)NC(=O)OC)cc3)CC2)c(F)c1 [Example 1.170]
13,16.3,CC(=O)N[C@@H](C)c1ccc(C2CCN(c3ccc(Cl)cc3C#N)CC2)cc1 [Example 1.171]
14,0.25,CC(=O)N[C@@H](C)c1ccc(C2CCN(c3ccc(OC4CCCCC4)nc3)CC2)cc1 [Example 1.172]
15,0.82,CC(=O)N[C@@H](C)c1ccc(C2CCN(c3cnc(C4CC4)cn3)CC2)cc1 [Example 1.173]
16,7.5,CC(=O)N[C@@H](C)c1ccc(C2CCN(c3ccc(C4CC4)nn3)CC2)cc1 [Example 1.174]
